According to the kinase profiling compilation of Christmann-Franck et al. (2016):

Assays:
Test in all cases: KINOMEscan competition binding
[1] = target: JAK2 JH2 pseudokinase (human) (UniProt O60674)
LYN (human) = LYN (human) (UniProt P07948)
CAMK1 (human) = CAMK1 (human) (UniProt Q14012)
EPHA7 (human) = EPHA7 (human) (UniProt Q15375)
[2] = target: ABL1 (human), P00519 [Y253F]
EPHA6 (human) = EPHA6 (human) (UniProt Q9UF33)
CAMK2D (human) = CAMK2D (human) (UniProt Q13557)
EPHA8 (human) = EPHA8 (human) (UniProt P29322)
INSR (human) = INSR (human) (UniProt P06213)
CAMK2G (human) = CAMK2G (human) (UniProt Q13555)
MAPK11 (human) = MAPK11 (human) (UniProt Q15759)
[3] = target: ABL1 (human), P00519 [E255K]
[4] = target: ABL1 (human), P00519 [M351T]
FGFR1 (human) = FGFR1 (human) (UniProt P11362)
PAK6 (human) = PAK6 (human) (UniProt Q9NQU5)
STK17B (human) = STK17B (human) (UniProt O94768)
MAP3K4 (human) = MAP3K4 (human) (UniProt Q9Y6R4)
[5] = target: JAK1 JH1 catalytic (human) (UniProt P23458)
LCK (human) = LCK (human) (UniProt P06239)
LIMK1 (human) = LIMK1 (human) (UniProt P53667)
FLT4 (human) = FLT4 (human) (UniProt P35916)
EPHB4 (human) = EPHB4 (human) (UniProt P54760)
FRK (human) = FRK (human) (UniProt P42685)
STK10 (human) = STK10 (human) (UniProt O94804)
ABL2 (human) = ABL2 (human) (UniProt P42684)
EPHA5 (human) = EPHA5 (human) (UniProt P54756)
PRKAA1 (human) = PRKAA1 (human) (UniProt Q13131)
MAP3K5 (human) = MAP3K5 (human) (UniProt Q99683)
PRKACA (human) = PRKACA (human) (UniProt P17612)
CLK1 (human) = CLK1 (human) (UniProt P49759)
AURKA (human) = AURKA (human) (UniProt O14965)
DAPK2 (human) = DAPK2 (human) (UniProt Q9UIK4)
SYK (human) = SYK (human) (UniProt P43405)
DAPK3 (human) = DAPK3 (human) (UniProt O43293)
STK17A (human) = STK17A (human) (UniProt Q9UEE5)
STK38L (human) = STK38L (human) (UniProt Q9Y2H1)
CAMK2B (human) = CAMK2B (human) (UniProt Q13554)
CLK4 (human) = CLK4 (human) (UniProt Q9HAZ1)
STK3 (mouse) = conditions: accession and sequence are those of the human protein
CAMKK2 (human) = CAMKK2 (human) (UniProt Q96RR4)
PLK4 (human) = PLK4 (human) (UniProt O00444)
RPS6KA2 KD1 (human) = RPS6KA2 KD1 (human) (UniProt Q15349)

Measured: Kd

EPHA7 (human), sequence (Q15375 whole entry, looked up): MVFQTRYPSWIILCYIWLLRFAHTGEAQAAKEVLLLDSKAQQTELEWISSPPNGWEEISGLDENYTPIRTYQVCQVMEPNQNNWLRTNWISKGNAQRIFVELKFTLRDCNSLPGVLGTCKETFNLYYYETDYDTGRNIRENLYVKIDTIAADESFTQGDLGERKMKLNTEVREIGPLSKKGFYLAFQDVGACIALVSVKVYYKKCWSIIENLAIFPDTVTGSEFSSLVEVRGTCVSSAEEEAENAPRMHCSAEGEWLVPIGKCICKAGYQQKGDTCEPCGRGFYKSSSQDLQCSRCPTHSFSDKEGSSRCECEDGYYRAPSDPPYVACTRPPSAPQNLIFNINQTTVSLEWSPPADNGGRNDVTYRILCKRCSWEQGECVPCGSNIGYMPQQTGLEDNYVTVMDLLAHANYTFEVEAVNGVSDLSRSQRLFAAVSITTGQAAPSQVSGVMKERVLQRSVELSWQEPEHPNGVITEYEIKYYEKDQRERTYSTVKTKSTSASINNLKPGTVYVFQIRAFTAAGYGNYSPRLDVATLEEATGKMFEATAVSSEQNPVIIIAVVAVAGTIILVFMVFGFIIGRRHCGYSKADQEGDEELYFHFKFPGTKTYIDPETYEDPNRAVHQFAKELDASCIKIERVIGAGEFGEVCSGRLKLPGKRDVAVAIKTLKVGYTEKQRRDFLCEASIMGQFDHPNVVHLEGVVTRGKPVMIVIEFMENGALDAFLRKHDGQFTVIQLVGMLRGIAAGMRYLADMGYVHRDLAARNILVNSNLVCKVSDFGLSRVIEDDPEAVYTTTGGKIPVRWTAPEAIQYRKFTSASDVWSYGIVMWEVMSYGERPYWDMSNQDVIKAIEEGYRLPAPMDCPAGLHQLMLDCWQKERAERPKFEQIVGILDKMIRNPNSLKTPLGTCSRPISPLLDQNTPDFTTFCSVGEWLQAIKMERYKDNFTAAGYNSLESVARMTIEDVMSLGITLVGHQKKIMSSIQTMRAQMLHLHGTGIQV
FGFR1 (human), sequence (P11362 whole entry, looked up): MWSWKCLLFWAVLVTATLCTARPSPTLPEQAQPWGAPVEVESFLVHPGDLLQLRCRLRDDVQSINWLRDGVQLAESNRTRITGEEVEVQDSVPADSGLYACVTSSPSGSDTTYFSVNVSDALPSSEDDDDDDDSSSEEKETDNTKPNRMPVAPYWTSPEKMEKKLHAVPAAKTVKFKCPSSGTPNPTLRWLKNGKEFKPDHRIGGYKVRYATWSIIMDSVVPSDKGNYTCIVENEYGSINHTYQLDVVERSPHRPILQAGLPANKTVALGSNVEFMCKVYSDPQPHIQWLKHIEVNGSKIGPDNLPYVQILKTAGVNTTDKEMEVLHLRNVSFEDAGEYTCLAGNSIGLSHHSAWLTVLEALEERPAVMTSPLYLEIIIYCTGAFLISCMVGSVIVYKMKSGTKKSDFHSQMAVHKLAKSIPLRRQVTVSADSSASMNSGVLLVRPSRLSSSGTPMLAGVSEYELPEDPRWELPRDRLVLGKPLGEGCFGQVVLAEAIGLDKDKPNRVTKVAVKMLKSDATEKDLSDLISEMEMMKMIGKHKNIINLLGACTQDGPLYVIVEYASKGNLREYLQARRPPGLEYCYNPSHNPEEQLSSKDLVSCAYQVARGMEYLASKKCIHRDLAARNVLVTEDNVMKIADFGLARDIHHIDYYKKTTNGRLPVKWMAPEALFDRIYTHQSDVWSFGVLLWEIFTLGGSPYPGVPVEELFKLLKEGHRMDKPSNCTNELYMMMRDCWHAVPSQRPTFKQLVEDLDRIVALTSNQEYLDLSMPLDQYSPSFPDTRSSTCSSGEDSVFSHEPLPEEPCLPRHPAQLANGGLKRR
MAP3K4 (human), sequence (Q9Y6R4 whole entry, looked up): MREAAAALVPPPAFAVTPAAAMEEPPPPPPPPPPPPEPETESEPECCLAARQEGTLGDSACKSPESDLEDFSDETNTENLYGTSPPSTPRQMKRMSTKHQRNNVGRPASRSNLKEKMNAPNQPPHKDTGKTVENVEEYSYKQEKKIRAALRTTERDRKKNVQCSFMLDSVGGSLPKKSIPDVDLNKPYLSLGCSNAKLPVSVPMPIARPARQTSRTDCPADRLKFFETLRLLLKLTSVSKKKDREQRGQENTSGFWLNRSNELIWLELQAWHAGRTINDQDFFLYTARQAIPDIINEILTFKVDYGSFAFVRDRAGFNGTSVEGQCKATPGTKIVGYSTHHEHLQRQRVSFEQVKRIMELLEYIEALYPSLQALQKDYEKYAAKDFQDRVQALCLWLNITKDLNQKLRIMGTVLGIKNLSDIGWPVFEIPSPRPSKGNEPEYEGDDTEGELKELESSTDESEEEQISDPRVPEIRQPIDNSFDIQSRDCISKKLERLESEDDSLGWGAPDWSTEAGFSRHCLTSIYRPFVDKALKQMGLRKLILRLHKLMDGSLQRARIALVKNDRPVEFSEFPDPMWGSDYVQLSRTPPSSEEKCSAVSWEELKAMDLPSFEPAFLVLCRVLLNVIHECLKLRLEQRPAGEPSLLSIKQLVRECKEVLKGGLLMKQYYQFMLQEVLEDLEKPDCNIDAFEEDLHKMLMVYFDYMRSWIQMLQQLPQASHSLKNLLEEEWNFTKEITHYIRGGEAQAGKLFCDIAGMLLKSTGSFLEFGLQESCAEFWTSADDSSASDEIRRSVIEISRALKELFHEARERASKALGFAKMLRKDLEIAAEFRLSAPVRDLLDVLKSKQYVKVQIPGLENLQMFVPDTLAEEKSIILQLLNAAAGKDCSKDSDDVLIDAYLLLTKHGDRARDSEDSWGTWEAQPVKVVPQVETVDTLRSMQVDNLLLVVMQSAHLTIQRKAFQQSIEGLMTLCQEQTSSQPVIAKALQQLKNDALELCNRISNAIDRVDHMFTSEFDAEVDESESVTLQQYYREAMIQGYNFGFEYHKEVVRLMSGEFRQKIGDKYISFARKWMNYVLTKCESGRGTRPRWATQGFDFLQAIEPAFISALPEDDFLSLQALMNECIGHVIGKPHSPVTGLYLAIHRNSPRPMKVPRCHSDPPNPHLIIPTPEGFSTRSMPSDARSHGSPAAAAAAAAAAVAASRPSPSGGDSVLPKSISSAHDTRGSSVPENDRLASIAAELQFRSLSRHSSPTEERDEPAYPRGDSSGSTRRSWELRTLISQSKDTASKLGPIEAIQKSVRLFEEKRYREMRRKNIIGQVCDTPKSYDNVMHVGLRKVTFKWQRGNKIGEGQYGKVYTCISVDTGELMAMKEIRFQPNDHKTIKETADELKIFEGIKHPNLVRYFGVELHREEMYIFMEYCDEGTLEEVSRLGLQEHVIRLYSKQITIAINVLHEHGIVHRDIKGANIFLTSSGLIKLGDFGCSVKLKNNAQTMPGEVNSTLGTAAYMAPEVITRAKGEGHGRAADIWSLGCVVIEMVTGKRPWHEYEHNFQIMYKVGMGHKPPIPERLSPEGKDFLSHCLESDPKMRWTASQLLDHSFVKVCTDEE
STK17B (human), sequence (O94768 whole entry, looked up): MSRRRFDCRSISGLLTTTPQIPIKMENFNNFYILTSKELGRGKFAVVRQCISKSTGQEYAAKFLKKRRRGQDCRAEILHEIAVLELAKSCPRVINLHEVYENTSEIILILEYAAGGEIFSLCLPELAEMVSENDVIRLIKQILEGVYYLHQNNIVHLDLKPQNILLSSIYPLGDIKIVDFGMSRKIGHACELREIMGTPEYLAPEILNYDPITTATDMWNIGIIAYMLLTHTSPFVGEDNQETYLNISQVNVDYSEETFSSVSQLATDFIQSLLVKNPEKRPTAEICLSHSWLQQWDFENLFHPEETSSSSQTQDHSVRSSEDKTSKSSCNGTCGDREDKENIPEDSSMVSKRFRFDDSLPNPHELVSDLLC
JAK1 JH1 catalytic (human), sequence (P23458 whole entry, looked up): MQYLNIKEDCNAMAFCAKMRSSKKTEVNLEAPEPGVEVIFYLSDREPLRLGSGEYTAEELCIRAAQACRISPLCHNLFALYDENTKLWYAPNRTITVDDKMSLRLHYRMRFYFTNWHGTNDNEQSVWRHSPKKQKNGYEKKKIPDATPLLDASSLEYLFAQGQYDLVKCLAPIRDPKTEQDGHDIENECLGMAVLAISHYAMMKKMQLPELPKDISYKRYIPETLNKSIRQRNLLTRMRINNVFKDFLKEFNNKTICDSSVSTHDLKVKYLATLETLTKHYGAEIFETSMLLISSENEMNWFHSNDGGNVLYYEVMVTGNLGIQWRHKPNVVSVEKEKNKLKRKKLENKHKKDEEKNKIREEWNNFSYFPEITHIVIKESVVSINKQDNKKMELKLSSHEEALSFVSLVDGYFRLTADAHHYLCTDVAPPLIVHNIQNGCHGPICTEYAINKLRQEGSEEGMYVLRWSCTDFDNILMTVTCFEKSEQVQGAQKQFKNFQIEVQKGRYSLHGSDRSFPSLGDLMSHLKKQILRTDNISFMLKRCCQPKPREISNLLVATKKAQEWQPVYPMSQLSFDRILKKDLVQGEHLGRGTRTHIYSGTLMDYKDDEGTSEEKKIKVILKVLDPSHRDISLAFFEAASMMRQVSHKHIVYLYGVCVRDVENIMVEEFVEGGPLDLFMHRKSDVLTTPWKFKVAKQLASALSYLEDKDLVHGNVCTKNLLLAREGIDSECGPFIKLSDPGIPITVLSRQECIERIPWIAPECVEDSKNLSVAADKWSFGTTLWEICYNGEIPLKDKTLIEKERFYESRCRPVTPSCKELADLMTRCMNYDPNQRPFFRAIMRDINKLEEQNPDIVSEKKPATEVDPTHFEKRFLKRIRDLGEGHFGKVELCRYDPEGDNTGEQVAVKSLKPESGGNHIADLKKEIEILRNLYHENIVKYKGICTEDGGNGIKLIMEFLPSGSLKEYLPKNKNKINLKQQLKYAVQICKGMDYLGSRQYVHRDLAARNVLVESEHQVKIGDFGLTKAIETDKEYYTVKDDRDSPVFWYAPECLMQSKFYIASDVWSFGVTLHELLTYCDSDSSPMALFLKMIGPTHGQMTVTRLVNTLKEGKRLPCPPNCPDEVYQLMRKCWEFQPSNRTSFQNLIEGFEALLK

O=C1c2ccccc2-c2n[nH]c3cccc1c23
not listed: AURKA (human) | DAPK2 (human) | SYK (human) | DAPK3 (human) | STK17A (human) | STK38L (human) | CAMK2B (human) | CLK4 (human) | STK3 (mouse) | CAMKK2 (human) | PLK4 (human) | RPS6KA2 KD1 (human)
> 10 µM: all other assays above

Oc1ccc(-c2nc(-c3ccc(F)cc3)c(-c3ccncc3)[nH]2)cc1
not listed: MAPK11 (human) | FRK (human)
> 10 µM: all other assays above
